{"source": "paper PMC11661376", "about": "“A2B adenosine receptor-triggered intracellular calcium mobilization: Cell type-dependent involvement of Gi, Gq, Gs proteins and protein kinase C” (Research Square, 2024)", "molecular_target": "T1, P2Y1 receptor (P2Y1R) (Homo sapiens, UniProt P47900)", "T1 construct": "gene P2RY1; native receptor in T24 and HEK293 cells", "T1 sequence (P47900 whole entry)": "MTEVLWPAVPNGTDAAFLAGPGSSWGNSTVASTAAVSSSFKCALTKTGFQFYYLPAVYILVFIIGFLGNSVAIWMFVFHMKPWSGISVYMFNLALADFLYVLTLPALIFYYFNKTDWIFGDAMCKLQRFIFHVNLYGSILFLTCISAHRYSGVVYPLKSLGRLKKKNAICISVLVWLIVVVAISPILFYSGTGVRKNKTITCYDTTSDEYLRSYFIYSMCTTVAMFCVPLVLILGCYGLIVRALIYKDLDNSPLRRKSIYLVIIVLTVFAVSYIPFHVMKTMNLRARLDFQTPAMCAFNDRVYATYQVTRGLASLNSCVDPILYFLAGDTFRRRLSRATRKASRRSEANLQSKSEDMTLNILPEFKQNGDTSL", "experiment": "agonist-induced intracellular Ca2+ mobilization (FLIPR) in T24 cells", "format": "cell-based"}
{"smiles": "CSc1nc(N)c2ncn([C@H]3[C@H](O)[C@H](O)[C@]4(COP(=O)(O)OP(=O)(O)O)C[C@H]34)c2n1", "note": "[MRS2365]", "values": [{"measurement": "EC50", "result": "1.38 ± 0.26", "unit": "nM"}]}
